Experimental data reported in ChEMBL document CHEMBL1201862, “PubChem BioAssay data set” (2004).
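Tested at 5 concentrations; 48 h exposure; 96-well plates; endpoints linearly interpolated, else capped at highest concentration. GI50 is the concentration that inhibits growth by half.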 Active and inactive are the calls of the source. Cut-off read from the data, not from the text of the source: active = GI50 up to about 1.1 µM and inactive = higher.

Experiments:
Assay in all cases: growth of human tumour cells (NCI), 48 h
SK-MEL-28 = system: SK-MEL-28
SF-295 = system: SF-295
CAKI-1 = system: CAKI-1
OVCAR-8 = system: OVCAR-8
SNB-75 = system: SNB-75
MDA-N = system: MDA-N
CCRF-CEM = system: CCRF-CEM
OVCAR-5 = system: OVCAR-5
ACHN = system: ACHN
IGROV-1 = system: IGROV-1
SN12C = system: SN12C
T47D = system: T47D
M14 = system: M14
BT-549 = system: BT-549
HCT-15 = system: HCT-15
SF-539 = system: SF-539
NCI/ADR-RES = system: NCI/ADR-RES
MCF7 = system: MCF7
COLO 205 = system: COLO 205
UACC-257 = system: UACC-257
NCI-H226 = system: NCI-H226
HL-60 = system: HL-60
SK-MEL-2 = system: SK-MEL-2
786-0 = system: 786-0
NCI-H522 = system: NCI-H522
HT-29 = system: HT-29
NCI-H23 = system: NCI-H23
PC-3 = system: PC-3
MDA-MB-435 = system: MDA-MB-435
DU-145 = system: DU-145
SR = system: SR
K562 = system: K562
UACC-62 = system: UACC-62
HOP-92 = system: HOP-92
SF-268 = system: SF-268
KM12 = system: KM12
MDA-MB-231 = system: MDA-MB-231
SK-MEL-5 = system: SK-MEL-5
OVCAR-4 = system: OVCAR-4
HCT-116 = system: HCT-116
A498 = system: A498
U-251 = system: U-251
RXF 393 = system: RXF 393
SNB-19 = system: SNB-19
UO-31 = system: UO-31
TK-10 = system: TK-10
Malme-3M = system: Malme-3M
OVCAR-3 = system: OVCAR-3
SW-620 = system: SW-620
NCI-H460 = system: NCI-H460
MOLT-4 = system: MOLT-4
HCC 2998 = system: HCC 2998
RPMI-8226 = system: RPMI-8226
A549 = system: A549
EKVX = system: EKVX
HOP-62 = system: HOP-62
LOX IMVI = system: LOX IMVI
Hs-578T = system: Hs-578T

Measured: GI50

Nc1ccc(COC(O)CN2CCCCC2)cc1[N+](=O)[O-] (stereo unspecified)
> 100 µM: HCT-15
inactive: SK-MEL-28 > 100 µM | SF-295 > 100 µM | CAKI-1 > 100 µM | OVCAR-8 > 100 µM | SNB-75 70.5 µM | MDA-N > 100 µM | CCRF-CEM > 100 µM | OVCAR-5 > 100 µM | ACHN > 100 µM | IGROV-1 > 100 µM | SN12C > 100 µM | T47D > 100 µM | M14 > 100 µM | BT-549 > 100 µM | SF-539 > 100 µM | NCI/ADR-RES > 100 µM | MCF7 > 100 µM | COLO 205 > 100 µM | UACC-257 > 100 µM | NCI-H226 > 100 µM | HL-60 > 100 µM | SK-MEL-2 > 100 µM | 786-0 > 100 µM | NCI-H522 > 100 µM | HT-29 > 100 µM | NCI-H23 > 100 µM | PC-3 > 100 µM | MDA-MB-435 > 100 µM | DU-145 > 100 µM | SR > 100 µM | K562 > 100 µM | UACC-62 > 100 µM | HOP-92 > 100 µM | SF-268 > 100 µM | KM12 > 100 µM | MDA-MB-231 > 100 µM | SK-MEL-5 > 100 µM | OVCAR-4 > 100 µM | HCT-116 > 100 µM | A498 > 100 µM | U-251 > 100 µM | RXF 393 > 100 µM | SNB-19 > 100 µM | UO-31 > 100 µM | TK-10 > 100 µM | Malme-3M > 100 µM | OVCAR-3 > 100 µM | SW-620 > 100 µM | NCI-H460 > 100 µM | MOLT-4 > 100 µM | HCC 2998 > 100 µM | RPMI-8226 > 100 µM | A549 > 100 µM

Nc1ccc(S(=O)(=O)NCCS(=O)(=O)O)cc1
inactive: SK-MEL-28 > 100 µM | SF-295 > 100 µM | CAKI-1 > 100 µM | OVCAR-8 > 100 µM | SNB-75 > 100 µM | MDA-N > 100 µM | CCRF-CEM > 100 µM | OVCAR-5 > 100 µM | ACHN > 100 µM | IGROV-1 > 100 µM | SN12C > 100 µM | M14 > 100 µM | BT-549 > 100 µM | NCI/ADR-RES > 100 µM | EKVX > 100 µM | HOP-62 > 100 µM | UACC-257 > 100 µM | NCI-H226 > 100 µM | HL-60 > 100 µM | SK-MEL-2 > 100 µM | 786-0 > 100 µM | NCI-H522 > 100 µM | HT-29 > 100 µM | NCI-H23 > 100 µM | PC-3 > 100 µM | MDA-MB-435 > 100 µM | LOX IMVI > 100 µM | DU-145 > 100 µM | SR > 100 µM | K562 > 100 µM | UACC-62 > 100 µM | HOP-92 > 100 µM | SF-268 > 100 µM | KM12 > 100 µM | MDA-MB-231 > 100 µM | SK-MEL-5 > 100 µM | OVCAR-4 > 100 µM | HCT-116 > 100 µM | A498 > 100 µM | U-251 > 100 µM | RXF 393 > 100 µM | SNB-19 > 100 µM | UO-31 > 100 µM | TK-10 > 100 µM | Malme-3M > 100 µM | OVCAR-3 > 100 µM | SW-620 > 100 µM | NCI-H460 > 100 µM | MOLT-4 > 100 µM | Hs-578T > 100 µM | A549 > 100 µM
> 100 µM: HCT-15
